Reference: patent US20150165000A1, “COMPOSITION FOR THERMOSTABILIZATION OF HUMAN SERUM ALBUMIN AND METHOD OF PREPARING THERMALLY STABILIZED HUMAN SERUM ALBUMIN USING THE SAME” (Ewha University - Industry Collaboration Foundation, priority 2012, published 2015)
One block for each compound: values may come before it.

How the values were obtained:
human serum albumin [1] = molecular target: T1, human serum albumin (Homo sapiens, UniProt P02768); assay: Thermal denaturation of human serum albumin solution: check of precipitation during heating; assay type: physicochemical
T1 construct: the single supply source of human serum albumin is currently the blood of humans; purchased Sigma-Aldrich A3782
Protocol: Thus, the present inventors estimated oleic acid affecting stability depending on the temperature. […] Specifically, while the temperature was maintained at 65° C., 70° C. and 75° C., whether the precipitation was formed due to denaturation of protein was checked at intervals of 30 min, 5 min and 3 min, respectively.
Thermostabilizing effects were evaluated at 70° C. using other C18 fatty acids including stearic acid, linoleic acid, α-linolenic acid and γ-linolenic acid, as well as oleic acid, in the same manner as in Example 6.1. for testing of stability against denaturation due to thermal treatment using oleic acid.
Thermostabilizing effects at 65° C. were evaluated using C16 fatty acids including palmitic acid and palmitoleic acid, as well as oleic acid as the C18 fatty acid, in the same manner as in Examples 6.1. and 6.2. for testing of stability against degeneration due to thermal treatment using various C18 fatty acids including oleic acid. The samples were warmed to 65° C. and observed at an interval of 5 min.
Thermostabilizing effects at 65° C. were evaluated using EPA (eicosapentaenoic acid) and DHA (docosahexanoic acid) as C20 and C22 fatty acids, as well as oleic acid as the C18 fatty acid, in the same manner as in Examples 6.1. to 6.3. for testing of stability against denaturation due to thermal treatment using various C16 and C18 fatty acids.

human serum albumin [2] = molecular target: T1, human serum albumin; assay: Structural stability against thermal treatment: secondary structure composition from circular dichroism; assay type: physicochemical; details: for structural stability (ratio of α-helix / circular dichroism spectrum), in words / structural stability (ratio of α-helix by circular dichroism), in words: albumin 1 mg/mL
Protocol: The composition of the secondary structure of protein may be estimated using circular dichroism, and thus changes in structure of the thermally denatured protein may be measured.
Measurement of circular dichroism was performed three times under conditions of a data pitch of 0.2 nm, a band width of 1.0 nm, a response time of 4 sec, and a scanning speed of 50 nm/min using a quartz cuvette having a path length of 0.1 cm by use of Jasco J-715 spectropolarimeter. The composition of the secondary structure was assayed from the measured circular dichroism values using SELCON3 program contained in the Dicroprot program.

T1 sequence (P02768 25-609): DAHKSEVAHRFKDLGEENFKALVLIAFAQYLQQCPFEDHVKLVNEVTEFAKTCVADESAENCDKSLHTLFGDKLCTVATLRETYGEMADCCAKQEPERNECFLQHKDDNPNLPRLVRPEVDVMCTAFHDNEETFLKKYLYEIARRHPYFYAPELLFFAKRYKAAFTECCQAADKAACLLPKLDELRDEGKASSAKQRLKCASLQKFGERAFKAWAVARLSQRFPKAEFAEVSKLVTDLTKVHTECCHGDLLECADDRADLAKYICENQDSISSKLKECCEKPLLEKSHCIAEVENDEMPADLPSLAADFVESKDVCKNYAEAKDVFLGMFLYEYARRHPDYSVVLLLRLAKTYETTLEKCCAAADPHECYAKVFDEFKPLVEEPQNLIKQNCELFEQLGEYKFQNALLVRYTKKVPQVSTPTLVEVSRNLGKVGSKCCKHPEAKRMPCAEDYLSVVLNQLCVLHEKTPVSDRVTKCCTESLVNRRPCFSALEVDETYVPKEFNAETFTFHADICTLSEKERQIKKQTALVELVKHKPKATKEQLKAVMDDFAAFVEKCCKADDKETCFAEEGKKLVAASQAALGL

Structure (SMILES): CC/C=C\C/C=C\C/C=C\C/C=C\C/C=C\C/C=C\CCC(=O)O [DHA, (4Z,7Z,10Z,13Z,16Z,19Z)-docosa-4,7,10,13,16,19-hexaenoic acid]
stability against denaturation due to thermal treatment compared to the human serum albumin control (human serum albumin [1]; 65° C., albumin 50 mg/mL, Examples 6.3, 6.4): much higher

Structure (SMILES): CCCCC/C=C\C/C=C\CCCCCCCC(=O)O [linoleic acid]
structural stability (ratio of α-helix / circular dichroism spectrum), in words (human serum albumin [2]; heated at 70° C. for 10 hr): maintained

Structure (SMILES): CCCCCCCC/C=C\CCCCCCCC(=O)O [oleic acid]
time for which denaturation was not observed (human serum albumin [1]; 60° C., albumin 50 mg/mL, fatty acid 1:1): ≥ 10 h
time for which denaturation did not occur (human serum albumin [1]; 65° C., albumin 50 mg/mL, fatty acid 1:1): about 6 hr
time after which precipitation began to form (human serum albumin [1]; 65° C., albumin 50 mg/mL, Example 6.1): 330 min
period of time maintained stably compared to the fatty acid-free human serum albumin solution (human serum albumin [1]; 70° C.): two times as long or more
time after which precipitation began to form (human serum albumin [1]; 70° C., albumin 50 mg/mL, Example 6.1): 30 min
difference between the control and the test group (human serum albumin [1]; 75° C., albumin 50 mg/mL, Example 6.1): no difference
structural stability (ratio of α-helix by circular dichroism), in words (human serum albumin [2]; heated at 60° C. for 10 hr): maintained
structural stability (ratio of α-helix / circular dichroism spectrum), in words (human serum albumin [2]; heated at 70° C. for 10 hr): maintained
structural stability (circular dichroism spectrum), in words (human serum albumin [2]; heated at 70° C. for 10 hr, albumin 1 to 40 mg/mL, Example 8): stability thereof was maintained
structural stability (ratio of α-helix by circular dichroism), in words (human serum albumin [2]; heated at 80° C. for 10 hr): deteriorated

Structure (SMILES): CC/C=C\C/C=C\C/C=C\CCCCCCCC(=O)O [α-linolenic acid, all-cis-9,12,15-octadecatrienoic acid]
structural stability (ratio of α-helix / circular dichroism spectrum), in words (human serum albumin [2]; heated at 70° C. for 10 hr): maintained

Now from value to compound:

structural stability (ratio of α-helix / circular dichroism spectrum), in words (human serum albumin [2]; heated at 70° C. for 10 hr): maintained
Structure (SMILES): CCCCCCC=CCCCCCCCC(=O)O [palmitoleic acid, hexadec-9-enoic acid]

structural stability (ratio of α-helix / circular dichroism spectrum), in words (human serum albumin [2]; heated at 70° C. for 10 hr): maintained
Structure (SMILES): CCCCC/C=C\C/C=C\C/C=C\CCCCC(=O)O [γ-linolenic acid]
